Structures can show the parent of a compound that is named as a salt. Where two headings read alike, the source gives them in different places.
What was measured:
[1] = biological target: T1, (recombinant) catalytic domain of human Bub1 (amino acids 704-1085) (Homo sapiens, UniProt O43683); assay: Equilibrium probe competition assay (TR-FRET kinase binding assay); settings: read-out: IC50 (Assay 5, probe competition)
T1 construct: catalytic domain of human Bub1 (amino acids 704-1085); 6xHis (N); made in house; host or cells: Hi5 insect cells
Description: Equilibrium Probe Competition Assay:
Bub1 binding affinity of compounds described in the present invention were quantified using a time-resolved fluorescence energy transfer (TR-FRET) kinase binding assay which measures displacement of the synthetic fluorescent probe 5-[({2-[2-({2-[1-(4-ethoxy-2,6-difluorobenzyl)-1H-indazol-3-yl]-4-(pyridin-4-ylamino)pyrimidin-5-yl}oxy)ethoxy]ethyl}carbamothioyl)amino]-2-(6-hydroxy-3-oxo-3H-xanthen-9-yl)benzoic acid (5-5-1) by the (recombinant) catalytic domain of human Bub1 (amino acids 704-1085). The enzyme was expressed in Hi5 insect cells with N-terminal 6×His/AviTag@ seqences, purified by affinity-(Ni-NTA) and size exclusion chromatography and site-specific biotinylated ex-vivo using a commercially available kit (Avidity).
In a typical assay 11 different concentrations of each compound (0.1 nM, 0.33 nM, 1.1 nM, 3.8 nM, 13 nM, 44 nM, ˜0.15 μM, ˜0.51 μM, ˜1.7 μM, 5.9 μM and 20 μM) were tested in duplicate within the same microtiter plate. To this end, 100-fold concentrated compound solutions (in DMSO) were made by serial dilution (1:3.4) of freshly prepared 2 mM stocks in a clear low volume 384-well source microtiter plate (Greiner Bio-One, Frickenhausen, Germany), from which 50 nl of compounds were transferred into a black low volume test microtiter plate from the same supplier. Subsequently 2 μL of a solution containing biotinylated Bub1 (the final concentration of Bub1 was adjusted depending on the activity of the enzyme lot in order to be within the linear dynamic range of the assay: typically ˜200 pM were used) and 1 nM Streptavidin Terbium Cryptate (Cisbio, No. 610SATLB) in aqueous assay buffer [50 mM Tris/HCl pH 7.5, 200 mM potassium chloride (KCl), 1.0 mM dithiothreitol (DTT), 0.1 mM sodium ortho-vanadate, 1% (v/v) glycerol, 0.01% (w/v) bovine serum albumine (BSA), 0.005% (v/v) Triton X-100 (Sigma), were added to the compounds in the test plate and the mixture was incubated for 15 min at 22′C to allow pre-equilibration of the putative enzyme-inhibitor complexes before the start of the probe competition reaction, which was initiated by the addition of 3 μL 1.67-fold concentrated solution (in assay buffer) of 5-5-1 (final concentration: 1.5 nM). The resulting mixture (5 μL final volume) was Incubated at 220 during 0, 15, 30, 60, 120, 240 and 1440 min. After each time point the resonance energy transfer from the Streptavidin Tb cryptate to the 3′,6′-dihydroxy-3H-spiro[2-benzofuran-1,9′-xanthen]-3-one moiety of 5-5-1 was measured in order to quantify the amount of fluorescent probe displaced by the test compounds. To this end, the fluorescence emissions at 520 nm and 490 nm after excitation at 330-350 nm were measured in a Pherastar FS TR-FRET plate reader, (BMG Lab technologies, Offenburg, Germany) and the ratio of the emissions (520 nm/490 nm) was taken as Indicator for the amount of Bub1/5-5-1 equilibrium complexes. The data were normalized using two sets of control wells for high-(=enzyme reaction without inhibitor=0%=Minimum inhibition) and low-(=all assay components without enzyme=100%=Maximum inhibition) Bub1 activity. IC50 values were calculated by fitting the normalized inhibition data to a 4-parameter logistic equation (Minimum, Maximum, IC50, Hill; Y=Max+(Min−Max)/(1+(X/IC50)Hill)).

[2] = Stability in buffer at various pH values (HPLC detection); format: physicochemical; settings: for recovery at 60 min, 0.2 mg/mL / recovery at 120 min, 0.2 mg/mL / recovery at 240 min, 0.2 mg/mL / recovery at 1440 min, 0.2 mg/mL: read-out: Recovery (Assay 6, prodrug stability); for Stability pH4: % Test Compound after 4 h [F(t = 4 h) × 100/F(t = 0 h)]: pH 4, 4 h; for Stability pH4: % Test Compound after 4 h [F(t = 4 h) × 100/F(t = 0 h)] / Stability pH7.4: % Test Compound after 4 h [F(t = 4 h) × 100/F(t = 0 h)]: 37° C., prodrug remaining; for Stability pH7.4: % Test Compound after 4 h [F(t = 4 h) × 100/F(t = 0 h)]: pH 7.4, 4 h
Protocol: Stability in Buffer at Various pH Values (HPLC Detection)
0.3 mg of the test compound was solved in 0.1 ml dimethylsulfoxide and 0.4 ml acetonitrile. For complete dissolution the HPLC vial with the sample solution was sonified for about 20 seconds. Then 1.0 ml of the respective buffer solution was added and the sample was again treated in the ultrasonic bath.
Buffer Solutions Used: • pH 4.0: Fluka buffer, Order No. 33643 (11.76 g citric acid, 2.57 g sodium chloride and 2.72 g sodium hydroxide)
pH 7.4: 90 g of sodium chloride, 13.61 g of potassium dihydrogen phosphate and 83.35 g of 1 M sodium hydroxide solution were made up to 1 L with Millipore water and then diluted 1:10.
10 μl portions of the sample solution were analysed by HPLC at different times (0 h, 1 h, 2 h, 4 h and 24 h) at 37° C. The peak areas in percentage were used for quantification.
Agilent 1100 with DAD (G1315B), binary pump (G1312A), autosampler (G1329A), column oven (G1316A), thermostat (G1330B); column: Kromasil 100 C18, 250 mm×4 mm, 5 μm; column temperature: 37° C.; eluent A: water+5 ml of perchloric acid/litre, eluent B: acetonitrile.
The ratios of the peak area (F) at different times in relation to the peak area at the starting point are shown in Table 3 for representative examples: […]

SMILES	IC50 ([1]; Time 15 min)	IC50 ([1]; Time 30 min)	IC50 ([1]; Time 60 min)	IC50 ([1]; Time 90 min)	IC50 ([1]; Time 120 min)	IC50 ([1]; Time 240 min)	IC50 ([1]; Time 1440 min)	recovery at 60 min, 0.2 mg/mL [2]	recovery at 120 min, 0.2 mg/mL [2]	recovery at 240 min, 0.2 mg/mL [2]	recovery at 1440 min, 0.2 mg/mL [2]	Stability pH4: % Test Compound after 4 h [F(t = 4 h) × 100/F(t = 0 h)] [2]	Stability pH7.4: % Test Compound after 4 h [F(t = 4 h) × 100/F(t = 0 h)] [2]
CCOc1cc(F)c(Cn2nc(-c3ncc(OCCCOC(=O)[C@H](C)NC(=O)[C@@H](N)CCCCN)c(Nc4ccnc(C(F)F)c4)n3)c3ccccc32)c(F)c1 [Example 4-1-1, 3-[(4-{[2-(difluoromethyl)pyridin-4-yl]amino}-2-[1-(4-ethoxy-2,6-difluorobenzyl)-1H-Indazol-3-yl]pyrimidin-5-yl)oxy]propyl L-lysyl-L-alaninate, salt with trifluoroaceticacid]	1400 pM	1500 pM	1400 pM	1500 pM	1300 pM	1500 pM	2000 pM	76%	57%	32%	0%	100%	32%
CCOc1cc(F)c(Cn2nc(-c3ncc(OCCCOC(=O)[C@H](C)NC(=O)[C@@H](N)CCCCN)c(Nc4ccnc(NC(C)=O)c4)n3)c3ccccc32)c(F)c1 [Example 4-1-2, 3-[(4-{[2-(acetylamino)pyridin-4-yl]amino}-2-[1-(4-ethoxy-2,6-difluorobenzyl)-1H-indazol-3-yl]pyrimidin-5-yl)oxy]propyl L-lysyl-L-alaninate, salt with trifiuoroaceticacid]	–	–	–	–	–	–	–	–	–	–	–	100%	30%
CCOc1cc(F)c(Cn2nc(-c3ncc(OCCCOC(=O)[C@H](C)NC(=O)[C@H](N)CCCCN)c(Nc4ccnc(NC(C)=O)c4)n3)c3ccccc32)c(F)c1 [Example 4-1-3, 3-[(4-{[2-(acetylamino)pyridin-4-yl]amino}-2-[1-(4-ethoxy-2,6-difluorobenzyl)-1H-indazol-3-yl]pyrimidin-5-yl)oxy]propyl D-lysyl-L-alaninate, salt with trifiuoroaceticacid]	1100 pM	650 pM	420 pM	270 pM	250 pM	200 pM	170 pM	75%	56%	31%	0%	100%	31%
CCOc1cc(F)c(Cn2nc(-c3ncc(OCCCOC(=O)[C@H](C)NC(=O)[C@@H](N)CCCNC(=N)N)c(Nc4ccnc(NC(C)=O)c4)n3)c3ccccc32)c(F)c1 [Example 4-1-4, 3-[(4-{[2-(acetylamino)pyridin-4-yl]amino}-2-[1-(4-ethoxy-2,6-difluorobenzyl)-1H-indazol-3-yl]pyrimidin-5-yl)oxy]propyl L-arginyl-L-alaninate, salt with trifiuoroaceticacid]	2800 pM	580 pM	610 pM	550 pM	540 pM	320 pM	330 pM	86%	73%	53%	3%	100%	53%
CCOc1cc(F)c(Cn2nc(-c3ncc(OCCCOC(=O)[C@H](C)NC(=O)[C@@H](N)CCCCN)c(Nc4ccncc4Cl)n3)c3ccccc32)c(F)c1 [Example 4-1-5, 3-({4-[(3-chloropyridin-4-yl)amino]-2-[1-(4-ethoxy-2,6-difluorobenzyl)-1H-indazol-3-yl]pyrimidin-5-yl}oxy)propyl L-lysyl-L-alaninate, salt with trifluoroaceticacid]	1500 pM	820 pM	600 pM	510 pM	460 pM	270 pM	250 pM	81%	65%	42%	0%	101%	42%
CCOc1cc(F)c(Cn2nc(-c3ncc(OCCCOC(=O)[C@H](C)NC(=O)[C@H](N)CCCCN)c(Nc4cc(C)ncc4C)n3)c3ccccc32)c(F)c1 [Example 4-1-6, 3-({4-[(2,5-dimethylpyridin-4-yl)amino]-2-[1-(4-ethoxy-2,6-difluorobenzyl)-1H-indazol-3-yl]pyrimidin-5-yl}oxy)propyl D-lysyl-L-alaninate, salt with trifluoroaceticacid]	–	–	–	–	–	–	–	–	–	–	–	101%	53%
CCOc1cc(F)c(Cn2nc(-c3ncc(OCCCOC(=O)[C@H](C)NC(=O)[C@@H](N)CCCCN)c(Nc4cc(C)ncc4C)n3)c3ccccc32)c(F)c1 [Example 4-1-7, 3-({4-[(2,5-dimethylpyridin-4-yl)amino]-2-[1-(4-ethoxy-2,6-difluorobenzyl)-1H-indazol-3-yl]pyrimidin-5-yl}oxy)propyl L-lysyl-L-alaninate, salt with trifluoroaceticacid]	–	–	–	–	–	–	–	–	–	–	–	99%	43%
CCOc1cc(F)c(Cn2nc(-c3ncc(OCCCOC(=O)[C@H](C)NC(=O)[C@@H](N)CCCNC(=N)N)c(Nc4ccncc4Cl)n3)c3ccccc32)c(F)c1 [Example 4-1-8, 3-({4-[(3-chloropyridin-4-yl)amino]-2-[1-(4-ethoxy-2,6-difluorobenzyl)-1H-indazol-3-yl]pyrimidin-5-yl}oxy)propyl L-arginyl-L-alaninate]	–	–	–	–	–	–	–	–	–	–	–	100%	56%
CCOc1cc(F)c(Cn2nc(-c3ncc(OCCCOC(=O)[C@@H](NC(=O)[C@@H](N)CCCCN)C(C)C)c(Nc4ccncc4Cl)n3)c3ccccc32)c(F)c1 [Example 4-1-9, 3-({4-[(3-chloropyridin-4-yl)amino]-2-[1-(4-ethoxy-2,6-difluorobenzyl)-1H-indazol-3-yl]pyrimidin-5-yl}oxy)propyl L-lysyl-L-valinate]	–	–	–	–	–	–	–	–	–	–	–	99%	99%
